Data taken from patent US9907601B2, “Methods and systems for chemical ablation” (Regents of the University of Minnesota, priority 2009, dated 2018).
Like-named read-outs stand apart in the source and are kept apart here.

Experiments:
[1] = In vitro injection of substrate and sodium permanganate solutions into a beaker, reaction temperature by thermocouple; assay type: physicochemical; details: for Average maximum temperature increase (° C.) Permanganate first / Average peak temperature (° C.) Permanganate first / Average maximum temperature increase (° C.) Simultaneous / Average peak temperature (° C.) Simultaneous / Average maximum temperature increase (° C.) Substrate first / Average peak temperature (° C.) Substrate first: substrate 1M/1 mL; for average maximum temperature: simultaneous injections, substrate 180 g/L, permanganate (1M, 1 mL)
Method: In vitro studies: All reagents were obtained from Sigma-Aldrich Chemical Co. (St. Louis, Mo.) unless otherwise noted. […] Exemplary reaction products of glycerol oxidation by permanganate include tartronic acid and glyceric acid (FIG. 8). Reaction temperature was measured by a thermocouple probe (type T MT-29/1; Physitemp Instruments, Clifton, N.J.) placed at the center of the beaker, with the tip submerged underneath the surface of the mixed solutions. Temperature recordings were made by a T-type thermocouple thermometer (Digi-Sense; Cole-Parmer, Vernon Hills, Ill.) at time intervals of 1 to 3 seconds from the onset of injections until the temperature dropped below 40° C. A series of different permanganate volumes (1, 2, and 3 mL) and concentrations (1 and 2M) were tested in order to study the effects of volume and concentration on temperature. Selected experiments were repeated with glucose, sucrose, maltodextrin (4-7 glucose unit average), and dextrin as substrates. The remaining substrates were different polysaccharides (starch, cellulose and glycogen) and polyvinyl alcohol. See, FIG. 9. All were used as 180 g/L (carbohydrates based on glucose) solutions and/or suspensions rather than expressing concentration in molarity due to their polymeric nature.

143B cells = experiment: DNA fragmentation assay, 143B; assay type: cell-based, human
Method: (§1) Cell lysates were incubated at 37° C. for 3 hours, and the samples were centrifuged at 13,000 rpm for 30 minutes. Supernatants containing DNA were extracted with phenol-chloroform and precipitated with ethanol. Equal amounts of DNA were resolved on a 2% agarose gel containing ethidium bromide, and bands corresponding to nucleosomes were visualized under ultra violet light.

[2] = system: breast cancer cell line MCF-7; experiment: MTT cell viability assay, MCF-7
Method: Cells were plated in 96-well plates for the MTT assays at a concentration of 3×10^5 cells per well overnight prior to performing the assays.
Cell viability assay: Cell viability assays were performed using as a substrate the MTT reagent 3-(4,5-Dimethylthiazol-2-yl)-2,5-diphenyltetrazolium bromide (Sigma-Aldrich, St. Louis, Mo.) at a concentration of 10 μg/100 μl. Growth medium was aspirated from the wells and cells were washed twice with 1×PBS. […] One hundred μl of MTT substrate was added to each well in a 96-well plate and plates were incubated for 1 hour at 37° C. Cells were then gently washed in 1×PBS and 100 μl stop solution (acidified phenol) was added to each well. Plates were incubated again at 37° C. for 30 minutes and the colorimetric changes in the cells were measured using a plate reader at 570 nm. Only the live viable cells are able to convert yellow colored MTT reagent into purple colored formazan.

MCF-7 cells = experiment: DNA fragmentation assay, MCF-7; assay type: cell-based, human
Method: as §1

HepG2 cells = details: Castañeda and Kinne 2000; cited from earlier work
HuH-7 cells [3] = system: HuH-7 cells
[4] = system: osteosarcoma cell line 143B; assay type: cell-based
HuH-7 cells [5] = experiment: DNA fragmentation assay, HuH-7; assay type: cell-based, human; details: 1 M urea for 2 hours
Method: as §1

[6] = NaMnO4 (1M/1 mL), permanganate first
[7] = NaMnO4 (1M/1 mL), simultaneous injection
[8] = NaMnO4 (1M/1 mL), substrate first
[9] = NaMnO4 (1M/2 mL), permanganate first
[10] = NaMnO4 (1M/2 mL), simultaneous injection
[11] = NaMnO4 (1M/2 mL), substrate first
[12] = NaMnO4 (1M/3 mL), permanganate first
[13] = NaMnO4 (1M/3 mL), simultaneous injection
[14] = NaMnO4 (1M/3 mL), substrate first
[15] = NaMnO4 (2M/1 mL), permanganate first
[16] = NaMnO4 (2M/1 mL), simultaneous injection
[17] = NaMnO4 (2M/1 mL), substrate first
[18] = 3% ethanol, exposure for 2 hours

Compound	Average maximum temperature increase (° C.) Permanganate first [1, 6] [°C]	Average peak temperature (° C.) Permanganate first [1, 6] [°C]	Average maximum temperature increase (° C.) Simultaneous [1, 7] [°C]	Average peak temperature (° C.) Simultaneous [1, 7] [°C]	Average maximum temperature increase (° C.) Substrate first [1, 8] [°C]	Average peak temperature (° C.) Substrate first [1, 8] [°C]	Average maximum temperature increase (° C.) Permanganate first [1, 9] [°C]	Average peak temperature (° C.) Permanganate first [1, 9] [°C]	Average maximum temperature increase (° C.) Simultaneous [1, 10] [°C]	Average peak temperature (° C.) Simultaneous [1, 10] [°C]	Average maximum temperature increase (° C.) Substrate first [1, 11] [°C]	Average peak temperature (° C.) Substrate first [1, 11] [°C]	Average maximum temperature increase (° C.) Permanganate first [1, 12] [°C]	Average peak temperature (° C.) Permanganate first [1, 12] [°C]	Average maximum temperature increase (° C.) Simultaneous [1, 13] [°C]	Average peak temperature (° C.) Simultaneous [1, 13] [°C]	Average maximum temperature increase (° C.) Substrate first [1, 14] [°C]	Average peak temperature (° C.) Substrate first [1, 14] [°C]	Average maximum temperature increase (° C.) Permanganate first [1, 15] [°C]	Average peak temperature (° C.) Permanganate first [1, 15] [°C]	also measured
OCC(O)CO [Glycerol, glycerol]	37.6	59.3	41.4	63.9	48.4	71.1	48.5	70.3	66.3	89.1	64.4	86.7	55.3	77.9	66.6	90.6	67.5	90.3	75.4	97.0	Average maximum temperature increase (° C.) Simultaneous [1, 16]: 74.5 °C; Average peak temperature (° C.) Simultaneous [1, 16]: 97.4 °C; Average maximum temperature increase (° C.) Substrate first [1, 17]: 76.9 °C; Average peak temperature (° C.) Substrate first [1, 17]: 99.1 °C; average maximum temperature, permanganate first ([1]; volume of substrate (1M) raised to 2 mL, permanganate 1M, permanganate first): 54.1 °C; average maximum temperature, simultaneous ([1]; volume of substrate (1M) raised to 2 mL, permanganate 1M, simultaneous injection): 53.1 °C; average maximum temperature, substrate first ([1]; volume of substrate (1M) raised to 2 mL, permanganate 1M, substrate first): 56.7 °C
OC[C@H]1O[C@@](CO)(O[C@H]2O[C@H](CO)[C@@H](O)[C@H](O)[C@H]2O)[C@@H](O)[C@@H]1O [Sucrose, sucrose]	24.9	46.4	33.5	56.8	37.1	58.9	42.1	64.9	51.0	73.6	60.0	82.1	51.5	74.6	66.9	90.1	63.0	85.1	76.7	100.0	average maximum temperature, permanganate-first ([1]; concentration of the sucrose solution (1 mL) raised to 2M, permanganate-first): 100.0 °C; average maximum temperature, simultaneous ([1]; concentration of the sucrose solution (1 mL) raised to 2M, simultaneous injection): 100.2 °C; average maximum temperature, sucrose-first ([1]; concentration of the sucrose solution (1 mL) raised to 2M, sucrose-first): 99.8 °C; Average maximum temperature increase (° C.) Simultaneous [1, 16]: 77.0 °C; Average peak temperature (° C.) Simultaneous [1, 16]: 100.2 °C; Average maximum temperature increase (° C.) Substrate first [1, 17]: 77.7 °C; Average peak temperature (° C.) Substrate first [1, 17]: 99.8 °C; average temperature increase, permanganate-first ([1]; volume of sucrose solution increased to 2 mL, permanganate-first): 44.6 °C; average temperature increase, simultaneous ([1]; volume of sucrose solution increased to 2 mL, simultaneous injection): 45.9 °C; average temperature increase, sucrose-first ([1]; volume of sucrose solution increased to 2 mL, sucrose-first): 51.0 °C
CCO [ethanol]	–	–	–	–	–	–	–	–	–	–	–	–	–	–	–	–	–	–	–	–	apoptosis by DNA laddering (143B cells; 10% ethanol for 6 hours): A similar result; cells died ([2]; 1% ethanol, 24 hour exposure): > 90%; cell death [2, 18]: > 90%; apoptosis by DNA laddering (MCF-7 cells; 10% ethanol for 6 hours): A similar result; apoptosis (HepG2 cells): induces apoptosis; cell death (HuH-7 cells [3]; 2% ethanol, 6 hours of exposure): 50%; cytotoxicity (HuH-7 cells [3]; 4% ethanol, 2 hours): lethal; cytotoxicity (HuH-7 cells [3]; ethanol 3% (v/v)): toxic; cytotoxicity (HuH-7 cells [3]; ethanol 5% (v/v)): toxic; cells died ([4]; 1% ethanol, 24 hour exposure): > 90%; cell death [4, 18]: > 90%
NC(N)=O [urea]	–	–	–	–	–	–	–	–	–	–	–	–	–	–	–	–	–	–	–	–	apoptosis by DNA laddering (143B cells; 1 M urea for 2 hours): induced apoptosis; apoptosis by DNA laddering (MCF-7 cells; 1 M urea for 2 hours): induced apoptosis; cells survived (HuH-7 cells [3]; 250 mM urea, 24 hours): 50%; cells survived (HuH-7 cells [3]; 750 mM urea, 6 hour exposure): about 50%; apoptosis by DNA laddering (HuH-7 cells [5]): induced apoptosis
dextrin	–	–	–	–	–	–	–	–	–	–	–	–	–	–	–	–	–	–	–	–	average maximum temperature [1]: 51.1 °C
maltodextrin	–	–	–	–	–	–	–	–	–	–	–	–	–	–	–	–	–	–	–	–	average maximum temperature [1]: 42.5 °C
